From patent EP4620956A1, “PARP1 INHIBITORS” (Zhejiang Yangli Pharmaceutical Technology Co., Ltd., priority 2022, dated 2024)

What was measured:
MDA-MB-436 = assay: Anti-proliferative activity (CellTiter-Glo, 7 days), MDA-MB-436; assay type: cell-based, human
DLD-1 BRCA2^-/- cells = assay: Apoptosis in BRCA2-deficient DLD-1 cells (Annexin V/PI flow cytometry); assay type: cell-based, human; settings: 7 days, different concentrations, three experiments, FIG. 4
Experimental: The mechanism of the anti-proliferative effect of the compounds on BRCA-mutated tumours was analysed, and the impact of the compounds on apoptosis in the BRCA2-mutated cell line was analysed by flow cytometry. BRCA2-deficient human colon cancer DLD-1 cells ([…]) were adherently cultured, with the culture conditions of RPMI1640 medium supplemented with 1% foetal bovine serum and 100 µg/mL hygromycin B. Once entering the logarithmic growth phase, the cells were collected and placed in a 6-well plate with 600,000 cells per well. The cells were allowed to adhere to the plate in a 37°C/5% CO2 incubator overnight. Different concentrations of compounds were added to each well and incubated in the incubator. After 7 days, the cells were collected and placed in a 96-well plate. 195 µL of Annexin V-FITC binding buffer was added to each well to resuspend the cells. Then 5 µL of Annexin V-FITC (beyotime, C1052) was added and gently mixed. […] The data acquired from the flow cytometer were analysed using FlowJo software.
For apoptosis analysis, the apoptosis samples were dragged into FlowJo, the raw data were double-clicked to open the graph window, and FSC-A was selected for the X-axis and SSC-A for the Y-axis. […] The "analysed cell population" was double-clicked in the SSC/FSC plot. […]

PARP5a = target: T1, PARP5a (Homo sapiens, UniProt O95271); assay: Inhibition of PARP5a enzyme activity (chemiluminescence); assay type: biochemical
T1 construct: purchased BPS 80504

A549 PARP1-KO cell lines = assay: Cellular PARylation inhibition, high-content imaging, PARP1-KO; assay type: cell-based
A549 WT = assay: Cellular PARylation inhibition, high-content imaging, A549 WT; assay type: cell-based; settings: Homo sapiens, PARylation at the cellular level
Experimental: The inhibitory effect of the compounds on PARP1/PARP2 enzyme activity at the cellular level was detected using high-content imaging. A549 WT, PARP1-KO and PARP2-KO cell lines were established in-house, and the cells were revived. After the cells were stable, a sufficient number of cells were collected and 100 µL of the cell suspension was seeded into a 96-well plate. The next day, the example compounds with serially diluted concentrations were added. […] The plate was incubated for 1.5 hours (A549 WT and PARP2-KO cell lines) or 2 hours (PARP1-KO cell line). After removing the supernatant, 0.4 mM H2O2 was added and incubation was carried out for 10 minutes (A549 WT and PARP2-KO cell lines) or 1.5 mM H2O2 was added and incubation was carried out for 15 minutes (PARP1-KO cell line) to induce extensive cellular DNA damage. After removing the supernatant, the cells were fixed with 4% paraformaldehyde for 20 minutes, followed by treatment with 0.5% Triton X-100 for 20 minutes to increase the permeability of the cell membrane. After that, the cells were incubated with 3% BSA for 1 hour to prevent non-specific binding. […] The cell nuclei were stained for 30 minutes by adding 50 µL DAPI (invitrogen, R37606). After washing twice with PBS, images were acquired on OPERETTA CLS™ (PE) by scanning the cells under a 20x water objective lens in non-confocal mode, with 5 fields of view captured per well. […] The inhibition rate was calculated using the fluorescence values from the Max and Min wells, and the dose-response curve was fitted using the analysis software GraphPad Prism 5 to obtain the IC50 value of each compound for the enzyme activity.

PARP2 = target: T2, PARP2 (Homo sapiens, UniProt Q9UGN5); assay: DNA trapping capability of PARP2 (HTRF); assay type: biochemical
T2 construct: purchased BPS 80502

MDA-MB-231 = assay: Anti-proliferative activity (CellTiter-Glo, 7 days), MDA-MB-231; assay type: cell-based, human
DLD-1 WT = assay: Anti-proliferative activity (CellTiter-Glo, 7 days), DLD-1 WT; assay type: cell-based, human
Experimental: The anti-proliferation experiment of the compounds on tumour cells adopted the most widely used ATP concentration-based detection method at present. MDA-MB-231 and MDA-MB-436 cell lines were obtained from ATCC, DLD-1 human colourectal adenocarcinoma epithelial cells and DLD-1 BRCA2^-/- cells were obtained from Horizon, and the cells were revived. After the cells were stable, the cells were collected. When the viable cell count exceeded 90%, 450-500 cells were seeded into a 384-well plate. The next day, the example compounds with serially diluted concentrations were added. Only buffer was added to the Max well, and 50 µM AZD2281 was added to the Min well. The plate was incubated for 7 days, and on the eighth day, CellTiter-Glo® reagent (Promega, G7573) was added. The plate was incubated at room temperature for 30 minutes, and the values were read on Envision (PE). The inhibition rate was calculated using the fluorescence values from the Max and Min wells, and the dose-response curve was fitted using the analysis software GraphPad Prism 5 to obtain the IC50 value of each compound for the enzyme activity.

T1 sequence (O95271 1001-1327): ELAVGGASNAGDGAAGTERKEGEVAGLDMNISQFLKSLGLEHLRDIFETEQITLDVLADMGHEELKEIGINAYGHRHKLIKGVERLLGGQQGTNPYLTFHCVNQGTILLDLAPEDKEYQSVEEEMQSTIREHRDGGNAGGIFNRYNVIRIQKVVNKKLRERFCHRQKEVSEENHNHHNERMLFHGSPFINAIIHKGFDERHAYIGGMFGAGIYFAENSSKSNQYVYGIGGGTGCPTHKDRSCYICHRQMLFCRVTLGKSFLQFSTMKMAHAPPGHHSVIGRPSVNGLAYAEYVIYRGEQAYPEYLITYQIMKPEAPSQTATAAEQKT
T2 sequence (Q9UGN5 whole entry): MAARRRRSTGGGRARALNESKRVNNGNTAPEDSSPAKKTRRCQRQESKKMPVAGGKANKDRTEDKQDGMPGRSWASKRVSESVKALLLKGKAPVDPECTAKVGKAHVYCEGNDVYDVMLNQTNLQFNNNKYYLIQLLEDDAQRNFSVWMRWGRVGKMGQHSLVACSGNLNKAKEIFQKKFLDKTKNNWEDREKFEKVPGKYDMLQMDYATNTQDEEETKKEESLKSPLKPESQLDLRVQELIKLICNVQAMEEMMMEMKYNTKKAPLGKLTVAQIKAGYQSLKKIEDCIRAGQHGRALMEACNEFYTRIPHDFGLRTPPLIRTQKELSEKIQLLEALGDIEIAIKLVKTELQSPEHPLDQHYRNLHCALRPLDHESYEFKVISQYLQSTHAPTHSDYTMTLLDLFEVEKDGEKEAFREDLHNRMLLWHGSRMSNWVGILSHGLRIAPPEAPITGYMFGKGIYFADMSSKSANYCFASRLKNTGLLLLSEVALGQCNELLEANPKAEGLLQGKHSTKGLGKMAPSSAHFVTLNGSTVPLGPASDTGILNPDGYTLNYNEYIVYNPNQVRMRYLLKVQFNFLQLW

Compound: [2H]C([2H])([2H])NC(=O)c1ccc(N2CCN(Cc3cnc4c(N)c(CC)c(=O)[nH]c4c3)CC2)c(F)n1 [Example 4, 5-(4-((8-Amino-7-ethyl-6-oxo-5,6-dihydro-1,5-naphthyridin-3-yl)methyl)piperazin-1-yl)-6-fluoro-N-(methyl-d3)picolinamide]
- IC50 (MDA-MB-436; Homo sapiens, MDA-MB-436, 168 h, BRCA1-mutated, 7 days, read-out: MDA-MB-436 IC50): 1.93 nM
- BRCA1 mutation/WT selectivity fold (MDA-MB-436; MDA-MB-231 vs MDA-MB-436): >5,181 fold
- proportion of apoptotic cells (DLD-1 BRCA2^-/- cells): higher proportion of apoptotic cells at different concentrations than the reference compound AZD5305
- IC50 (PARP5a; enzyme activity): 4060 nM
- PARP5a multiple vs PARP1 (PARP5a; ratio relative to the PARP1 enzyme activity): 8,467
- inhibition on the enzyme activity at the highest concentration (A549 PARP1-KO cell lines; A549 PARP1-KO cell lines, 40 µM): no detectable inhibition
- IC50 (A549 PARP1-KO cell lines; Homo sapiens, A549, PARylation at the cellular level): > 40000 nM
- IC50 (A549 WT): 5.2 nM
- EC50 (PARP2): 382 nM
- inhibition on cell proliferation at the highest concentration (MDA-MB-231; BRCA1-normal MDA-MB-231 cell line, 10 µM): no detectable inhibition
- IC50 (MDA-MB-231; Homo sapiens, MDA-MB-231, 168 h, BRCA1-normal, 7 days, read-out: MDA-MB-231 IC50): > 10000 nM
- inhibition on cell proliferation at the highest concentration (DLD-1 WT; BRCA2-normal DLD-1 cell line, 10 µM): no detectable inhibition
- IC50 (DLD-1 WT; Homo sapiens, DLD-1, 168 h, BRCA2-normal, 7 days): > 10000 nM
